In brackets after ≈: the same amount, converted by molar mass. Read-outs that look alike come from different tables or passages of the source. A value given as a limit tells only on which side of the number the result lay.

We go through five molecules from publication PMC5086919, “Antileukemic Scalarane Sesterterpenoids and Meroditerpenoid from Carteriospongia (Phyllospongia) sp., Induce Apoptosis via Dual Inhibitory Effects on Topoisomerase II and Hsp90” (Scientific Reports, 2016).

Series [1] concerns Cal-27 cells. Put plainly: MTT antiproliferative assay, oral Cal-27 cells. The following applies: Homo sapiens, CAL-27, 72 h, read-out: IC50, cytotoxicity, Oral Cal-27.
From the text: (§2) Several cancer cell lines including leukemia K562, Molt 4, and HL 60 cells, prostate cancer LNCaP cells, colon cancer DLD-1 cells and breast cancer T-47D cells were used to evaluate the antiproliferative activity.
(§3) The cell lines were obtained from the American Type Culture Collection (ATCC, Manassas, VA, USA). […] Dimethyl sulfoxide (DMSO), 3-(4,5-dimethylthiazol-2-yl)-2,5-diphenyl-tetrazolium bromide (MTT) and all other chemicals were purchased from Sigma-Aldrich (St. Louis, MO, USA).
For series [2], the system named is LNCaP cells. Kind of series: MTT antiproliferative assay, prostate cancer LNCaP cells. The following applies: Homo sapiens, 72 h.
From the text: as §2, §3
In series [3] the test system is Sup-T1 cells. Put plainly: MTT antiproliferative assay, lymphoma Sup-T1 cells. The conditions noted are these: Homo sapiens, SUP-T1, 72 h, read-out: IC50, cytotoxicity, Lymphoma Sup-T1. On the technique in general: Tetrazolium dyes change colour on reduction, which living cells bring about.
Series [4] deals with K562 cells. Kind of series: MTT antiproliferative assay, leukemia K562 cells. The following applies: Homo sapiens, K562, 72 h, read-out: IC50, cytotoxicity, Leukemia K562.
From the text: as §2, §3
Series [5] has as its system Molt 4 cells. Put plainly: MMP disruption, JC-1 staining flow cytometry. Type of series: cell-based, human. The following applies: 0, 0.0625, 0.125 and 0.25 μg/mL, 24 h. The protocol:
These assays were performed as described previously. […] In brief, the treated cells were labeled with a specific fluorescent dye for 30 min. After labeling, cells were washed with PBS and resuspended in PBS at a concentration of 1 × 10^6 cells/mL before analysis via flow cytometry.
On the technique in general: Flow cytometry measures light scatter and fluorescence of single cells or particles in a stream.

Series [6] relates to U937 cells. Put plainly: MTT antiproliferative assay, lymphoma U937 cells. The following applies: Homo sapiens, U-937, 72 h, read-out: IC50, cytotoxicity, Lymphoma U937.
For series [7], the system named is DLD-1 cells. Put plainly: MTT antiproliferative assay, colon cancer DLD-1 cells. The conditions noted are these: Homo sapiens, DLD-1, 72 h, read-out: IC50, cytotoxicity, Colon DLD-1.
From the text: as §2, §3
The target in series [8] is T1, human topoisomerase II (Homo sapiens, UniProt P11388).
T1 construct: purchased Topogen
T1 sequence (P11388 whole entry): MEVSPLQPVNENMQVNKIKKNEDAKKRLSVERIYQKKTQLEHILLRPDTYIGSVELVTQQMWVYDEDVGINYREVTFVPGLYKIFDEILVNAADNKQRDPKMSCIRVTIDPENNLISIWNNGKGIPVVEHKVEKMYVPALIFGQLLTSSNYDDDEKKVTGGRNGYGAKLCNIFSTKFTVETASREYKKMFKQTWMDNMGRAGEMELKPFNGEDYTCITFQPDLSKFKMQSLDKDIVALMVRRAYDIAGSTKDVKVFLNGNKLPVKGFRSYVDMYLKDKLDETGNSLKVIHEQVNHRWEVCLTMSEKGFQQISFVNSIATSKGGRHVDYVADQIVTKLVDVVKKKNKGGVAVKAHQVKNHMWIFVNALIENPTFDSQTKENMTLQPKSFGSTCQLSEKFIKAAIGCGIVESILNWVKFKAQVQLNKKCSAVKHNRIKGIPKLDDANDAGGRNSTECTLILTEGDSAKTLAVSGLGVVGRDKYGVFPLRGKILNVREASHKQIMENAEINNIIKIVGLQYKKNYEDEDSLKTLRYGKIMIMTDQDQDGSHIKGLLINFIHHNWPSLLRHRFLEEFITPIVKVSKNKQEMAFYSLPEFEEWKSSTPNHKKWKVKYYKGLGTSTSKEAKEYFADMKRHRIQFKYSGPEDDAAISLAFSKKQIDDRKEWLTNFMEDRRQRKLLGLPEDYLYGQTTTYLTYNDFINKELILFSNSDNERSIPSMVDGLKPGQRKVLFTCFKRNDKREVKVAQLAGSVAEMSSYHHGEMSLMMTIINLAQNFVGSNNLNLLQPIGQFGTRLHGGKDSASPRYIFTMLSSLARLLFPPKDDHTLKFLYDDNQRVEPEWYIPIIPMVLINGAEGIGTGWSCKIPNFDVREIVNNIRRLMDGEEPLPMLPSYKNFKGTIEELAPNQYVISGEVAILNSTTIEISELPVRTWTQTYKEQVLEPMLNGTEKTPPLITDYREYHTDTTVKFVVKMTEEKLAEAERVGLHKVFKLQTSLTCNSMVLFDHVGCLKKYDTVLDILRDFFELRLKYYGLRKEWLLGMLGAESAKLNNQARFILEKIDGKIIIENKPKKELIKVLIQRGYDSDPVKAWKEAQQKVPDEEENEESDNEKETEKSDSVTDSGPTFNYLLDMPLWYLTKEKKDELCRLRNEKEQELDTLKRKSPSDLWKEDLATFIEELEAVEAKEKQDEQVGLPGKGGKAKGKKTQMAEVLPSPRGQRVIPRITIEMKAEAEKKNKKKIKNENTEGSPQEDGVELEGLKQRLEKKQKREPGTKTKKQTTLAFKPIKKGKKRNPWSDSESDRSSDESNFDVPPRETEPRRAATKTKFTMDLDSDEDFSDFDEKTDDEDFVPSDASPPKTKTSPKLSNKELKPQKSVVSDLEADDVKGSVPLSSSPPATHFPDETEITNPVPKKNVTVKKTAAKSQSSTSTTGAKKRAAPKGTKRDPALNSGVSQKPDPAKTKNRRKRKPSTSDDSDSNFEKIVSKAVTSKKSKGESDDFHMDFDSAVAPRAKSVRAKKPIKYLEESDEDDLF
Kind of series: Cell-free topoisomerase II DNA relaxation/cleavage assay with supercoiled pHOT1 plasmid DNA. Type of series: biochemical. The following applies: for inhibition at 0.08 µg/mL: 0.08 μg/mL; for inhibition at 0.08 µg/mL / inhibition at 0.312 µg/mL / inhibition at 1.25 µg/mL / inhibition at 5 µg/mL / inhibition at 20 µg/mL: compared with control supercoiled DNA; for inhibition at 0.312 µg/mL: 0.312 μg/mL; for inhibition at 1.25 µg/mL: 1.25 μg/mL; for inhibition at 5 µg/mL: 5 μg/mL; for inhibition at 20 µg/mL: 20 μg/mL. From the text: (§1) The ability of Topo II to generate DNA damage in the presence of Topo II-targeting agents led to the hypothesis that an important determinant of drug sensitivity was related to the overall level of Topo II[17]. […] Such findings encouraged us to evaluate the effect of the isolates on Topo II activity. In order to confirm whether the DNA damage-induced by the isolated sesterterpenoids involved the inhibition of Topo II activity, a cell-free DNA cleavage assay using an enzyme-mediated negatively supercoiled pHOT1 plasmid DNA was applied. […] These marine terpenoids suppressed Topo II activity, resulting in the inhibition of supercoiled DNA relaxation in a dose-dependent manner (Fig. 5A). […] To determine whether the apoptotic mechanism of these compounds affects γH2AX (as a biomarker of DNA damage) induction, Western blot analysis was employed to examine the activation of γH2AX.
The assay was performed as described previously. […] Reactions were terminated by adding 2 μL of 10% SDS to facilitate trapping the enzyme in a cleavage complex, followed by the addition of 2.5 μL of proteinase K (50 μg/mL) to digest the bound protein (incubated at 37 °C for 15 min) and finally by adding 0.1 volume of the sample loading dye. The DNA products were analyzed via electrophoresis through vertical 2% agarose gels at 2 voltage/cm in 0.5 × TAE buffer. Gels were stained with ethidium bromide and photographed using an Eagle Eye II system (Stratagene, La Jolla, CA, USA). The quantitative analysis of the DNA Topo II activity was performed as described previously.

Series [9] deals with T-47D cells. Put plainly: MTT antiproliferative assay, breast cancer T-47D cells. The following applies: Homo sapiens, T47D, 72 h, read-out: IC50, cytotoxicity, Breast T-47D.
From the text: as §2, §3
Series [10] has as its system Molt 4 cells. Put plainly: Annexin V/PI apoptosis assay. The following applies: 0, 0.0625, 0.125 and 0.25 μg/mL, 24 h, annexin-V/PI. In kind it is cell-based, human. The method, then:
The externalization of phosphatidylserine (PS) and membrane integrity were quantified using an annexin V- FITC staining kit[72]. In brief, 10^6 cells were grown in 35 mm diameter plates and were labeled with annexin V-FITC (10 μg/mL) and PI (20 μg/mL) prior to harvesting. After labeling, all plates were washed with a binding buffer and harvested. Cells were resuspended in the binding buffer at a concentration of 2 × 10^5 cells/mL before analysis by flow cytometer FACS-Calibur (Becton-Dickinson, San Jose, CA, USA) and CellQuest software. Approximately 10,000 cells were counted for each determination.

Series [11] deals with HL 60 cells. Kind of series: MTT antiproliferative assay, leukemia HL 60 cells. The following applies: Homo sapiens, HL-60, 72 h, read-out: IC50, cytotoxicity, Leukemia HL 60.
From the text: as §2, §3
The test system of series [12] is Ca9-22 cells. Kind of series: MTT antiproliferative assay, oral Ca9-22 cells. The following applies: Homo sapiens, Ca9-22, 72 h, read-out: IC50, cytotoxicity, Oral Ca9-22.
From the text: as §2, §3
For series [13], the system named is Molt 4 cells. Put plainly: MTT antiproliferative assay, leukemia Molt 4 cells. Type of series: cell-based. The following applies: Homo sapiens.
Series [14] has as its system γH2AX in Molt 4 cells. Put plainly: Western blot of γH2AX (DNA damage biomarker). In kind it is cell-based, human. The conditions noted are these: 0, 0.0625, 0.125 and 0.25 μg/mL, 24 h.
From the text: as §1
Cell lysates were prepared by treating the cells for 30 min in RIPA lysis buffer, 1% Nonidet P-40, 0.5% sodium deoxycholate, 0.1% sodium dodecyl sulphate (SDS), 1 mM sodium orthovanadate, 100 μg/mL phenylmethylsulfonyl fluoride and 30 μg/mL aprotinin) (all chemicals were from Sigma)[38]. The lysates were centrifuged at 20,000 × g for 30 min, and the protein concentration in the supernatant was determined using a BCA protein assay kit (Pierce). Equal amounts of proteins were respectively separated by 7.5%, 10% or 12% of SDS-polyacrylamide gel electrophoresis and then were electrotransferred to a PVDF membrane. The membrane was blocked with a solution containing 5% non-fat dry milk TBST buffer (20 mM Tris-HCl, pH 7.4, 150 mM NaCl and 0.1% Tween 20) for 1 h and washed with TBST buffer. The protein expressions were monitored by immunoblotting using specific antibodies. These proteins were detected by an enhanced chemiluminescence kit (Pierce).
Background: Immunoblotting shows a protein as a band on a membrane.

The test system of series [15] is human Molt 4 tumor xenograft. Put plainly: Human leukemia Molt 4 tumor xenograft animal model. In kind it is in vivo, immunodeficient athymic mice. From the text: Compounds 1 and 2 induced apoptosis in several cancer cell lines; however, the amounts isolated were insufficient for further examination of their in vivo antitumor effect. On the other hand, the amount separated from 3 was sufficient to study the in vivo anti-tumor activity by evaluating its effect on tumor growth of human leukemia Molt 4 in xenograft animal model. Molt 4 (1 × 10^6) cells were inoculated subcutaneously at the right flank of female immunodeficient athymic mice. […] The average tumor size on day 33 in the control group was 404.63 mm^3, whereas the average tumor size in compound 3-treated group was 212.10 mm^3 (Fig. 6A).
Establishment of nude mice with xenografts was performed as described previously. Six-week-old […] immunodeficient athymic mice were purchased from the National Laboratory Animal and Research Center (Taipei, Taiwan). All of the animals were maintained under standard laboratory conditions (temperature 24–26 °C, 12–12 h dark-light circle) and fed with laboratory diet and water. This study was approved by the Animal Care and Treatment Committee of Kaohsiung Medical University (IACUC Permit Number 101136). All experiments were conducted in strict accordance with the recommendations in the Guide for the Care and Use of Laboratory Animals of the National Institutes of Health, and all efforts were made to minimize animal stress/distress. Molt 4 cells (1 × 10^6) resuspended in 0.2 mL PBS were injected s.c. into the right flank of each mouse, and tumor growth was monitored every day. Fourteen days after tumor cell injection, mice with confirmed tumor growth were randomly divided into two groups. Compound 3 (1.14 μg/g) was intraperitoneally administered to the treatment group, and the control group received solvent only. Compound 3 was administrated every other day for 33 days. Animals were sacrificed by carbon dioxide. Tumor size was measured three times a week using calipers and tumor volumes were calculated according to the standard formula: width^2 × length/2.

The mark [16] stands for this setting: read-out: IC50, cytotoxicity, Prostate LNCaP (class symbol).
Setting [17] is: 72 h, read-out: IC50, cytotoxicity, Leukemia Molt 4.

The IC50 is the concentration needed to halve the response being measured. By inhibition is commonly meant how much of the control response was suppressed. With `CC[C@@H](O)CC(=O)O[C@@H]1C[C@@H]2[C@@]3(C)CCC[C@](C)(CC)[C@@H]3CC[C@@]2(C)[C@@H]2CC=C(C(C)=O)[C@H](C=O)[C@@]12C` (relative stereo) [Compound 2, 12β-(3′β-hydroxy-pentanoyloxy)-20,24-dimethyl-24-oxo-scalara-16-en-25-al], the IC50 is 3.17 µg/mL (≈ 6.16 µM) in series [1]; more than 20 µg/mL in series [2] (setting [16]); 0.42 µg/mL (≈ 0.816 µM) in [3]; 0.35 µg/mL (≈ 0.68 µM) in series [4]; 0.61 µg/mL (≈ 1.19 µM) in [6]; 1.71 µg/mL (≈ 3.32 µM) in series [7]. The half-maximal inhibitory concentration (IC50) came to 1.87 µg/mL (≈ 3.63 µM) in series [9], 0.22 µg/mL (≈ 0.427 µM) in series [11], 1.48 µg/mL (≈ 2.88 µM) in [12] and 0.3 µg/mL in series [13] (setting [17]). Moreover, the mitochondrial membrane potential result in [5] is recorded as “disruption in mitochondrial membrane potential”. Further, 0.08 µg/mL produced 12% inhibition in [8]. This molecule yielded an inhibition at 0.312 µg/mL in series [8] of 23%. The same molecule had an inhibition at 1.25 µg/mL in series [8] of 36%. Also, in [8], the inhibition at 5 µg/mL came out at 90%. At 20 µg/mL the inhibition in series [8] was 99%. The “apoptotic population of Molt 4 cells” value in series [10] is “increase in the apoptotic population”. The “expression of γH2AX” value in series [14] is “significantly enhanced the expression of γH2AX in a dose-dependent manner”.

For the molecule `CC(C)=CCC/C(C)=C/CC/C(C)=C/CC/C(C)=C/CC1=CC(=O)C=CC1=O` [Compound 3, 2-tetraprenil-1,4-benzochinone], the concentration for half-maximal inhibition (IC50) in [1] is 0.51 µg/mL (≈ 1.34 µM); in [2] (setting [16]), more than 20 µg/mL; in [3], 0.33 µg/mL (≈ 0.867 µM); in series [4] it was 0.7 µg/mL (≈ 1.84 µM); in series [6], 0.65 µg/mL (≈ 1.71 µM); in series [7] it was 15.4 µg/mL (≈ 40.5 µM). The half-maximal inhibitory concentration (IC50) in [8] (cell-free system, read-out: IC50, inhibition of topo II activities (converted)) was 1.13 µM; in series [9] it was 1.06 µg/mL (≈ 2.79 µM); in series [11], 0.42 µg/mL (≈ 1.1 µM); in series [12], 0.97 µg/mL (≈ 2.55 µM); in series [13] (setting [17]) it was 0.34 µg/mL. The “mice body weights versus control group” value in series [15] (1.14 μg/g intraperitoneal, 33 days) is listed as “no significant difference”. Further, in series [15] (1.14 μg/g intraperitoneal, every other day, 33 days), the “average tumor size on day 33” value amounted to 212.10 mm^3. Also, the “suppression of the volume of xenograft tumor growth compared with the control” value in series [15] (Molt 4 xenograft) was 47.58%. For the same molecule, in series [5], the mitochondrial membrane potential result was “disruption in mitochondrial membrane potential”. The molecule also showed an inhibition at 0.08 µg/mL in series [8] of 7%. The inhibition at 0.312 µg/mL in series [8] came out at 13%. Further, in [8], at 1.25 µg/mL the inhibition was 28%. Moreover, the inhibition at 5 µg/mL in series [8] amounted to 90%. Further, the inhibition at 20 µg/mL in series [8] amounted to 98%. Moreover, the “apoptotic population of Molt 4 cells” value in series [10] was “increase in the apoptotic population”. Also, in [14], the “expression of γH2AX” value is “activation of DNA damage was not observed”.

In the case of `C=CCNC1=C2C[C@@H](C)C[C@H](OC)[C@H](O)[C@@H](C)/C=C(\C)[C@H](OC(N)=O)[C@@H](OC)/C=C\C=C(/C)C(=O)NC(=CC1=O)C2=O` [Compound 17-AAG, 17-allylamine-17-demethoxygeldanamycin, reference compound], the 50% inhibitory concentration (IC50) in [13] (24 h, molar value in brackets, read-out: IC50, suppression in cell growth, Molt 4) was 7.2 µM; in series [13] (24 h, read-out: IC50, suppression in cell growth, Molt 4), 4.2 µg/mL.

With `COc1cccc2c1C(=O)c1c(O)c3c(c(O)c1C2=O)C[C@@](O)(C(=O)CO)C[C@@H]3O[C@H]1C[C@H](N)[C@H](O)[C@H](C)O1` [Doxorubicin, reference compound], the IC50 was 0.01 µg/mL (≈ 0.0184 µM) in series [1]; 2.47 µg/mL (≈ 4.54 µM) in [2] (read-out: IC50, cytotoxicity, Prostate LNCaP); 0.02 µg/mL (≈ 0.0368 µM) in series [3]; 0.2 µg/mL (≈ 0.368 µM) in [4]; 0.21 µg/mL (≈ 0.386 µM) in series [6]; 1.28 µg/mL (≈ 2.35 µM) in [7]. Further, the half-maximal inhibitory concentration (IC50) stood at 0.08 µg/mL (≈ 0.147 µM) in series [9], 0.02 µg/mL (≈ 0.0368 µM) in [11], 0.05 µg/mL (≈ 0.092 µM) in [12] and 0.01 µg/mL in [13] (setting [17]).

Turning to `COc1cc([C@@H]2c3cc4c(cc3[C@@H](O[C@@H]3O[C@@H]5CO[C@@H](C)O[C@H]5[C@H](O)[C@H]3O)[C@H]3COC(=O)[C@H]23)OCO4)cc(OC)c1O` [etoposide, reference compound], the “DNA product with topo II poison” value in series [8] (500 μM, positive control, Lane 16) is reported as “linear DNA strand was observed”.
